According to publication PMC8777613, “Effect of Hydroxyl Groups Esterification with Fatty Acids on the Cytotoxicity and Antioxidant Activity of Flavones” (Molecules, 2022):
Read-outs that look alike come from different tables or passages of the source.

Experiments:
[1] = tested on: human prostate cancer cells (PC3); test: MTT dye reduction viability test, PC3; assay type: cell-based; conditions: for IC50 / viability at 10 µM / viability at 20 µM / viability at 40 µM / viability at 60 µM / viability at 80 µM / viability at 100 µM: Homo sapiens; for IC50: read-out: Cytotoxic activity IC50, PC3; for viability at 10 µM: PC3, 10 µM; for viability at 20 µM: PC3, 20 µM; for viability at 40 µM: PC3, 40 µM; for viability at 60 µM: PC3, 60 µM; for viability at 80 µM: PC3, 80 µM
Protocol: (§1) We have chosen two types of cell culture lines: human prostate cancer cells (PC3) and normal human immortal keratinocyte cells (HaCaT) (Table 1).
(§2) Human prostate cancer cells (PC3) and human immortal keratinocyte cell line from adult human skin (HaCaT) were obtained from American Type Culture Collection (Teddington, UK) and cultured according to its instructions RPMI 1640 (L0490) medium or DMEM (L0102) medium, respectively, in a 95% air and 5% CO2 humidified incubator at 37 °C. Both media (Biowest) were supplemented with 10% fetal bovine serum (FBS), 100 U/mL penicillin and 100 μg/mL streptomycin. 10 mM stock solutions of tested compounds in DMSO were prepared.
(§3) To assess the cells growth inhibition, the MTT dye reduction test was preformed based on the method described by Präbst et al.. Both PC3 and HaCaT cells (1 × 10^3/well) were seeded into 96-well plates and incubated for 24 h to attach to the bottom of the well in appropriate medium (200 μL) and treated with tested compounds (0–100 μM). The medium with compounds was removed after 72 h and MTT (0.5 mg/mL) in fresh growth medium without serum was added to each well. The plates were incubated in dark for 4 h at 37 °C. Then, the solution in each well was removed and refilled with 100 μL DMSO: isopropanol (1:1) to dissolve formazon crystals. The optical density was measured with an UVM 340 (ASYS Hitech GmbH, Austria) microplate reader at 570 nm. Replicates of three wells for each dosage, including vehicle control, were analyzed for each experiment. The experiments were conducted in triplicate. The results are expressed as IC50 values. The value of IC50 was estimated using CompuSyn version 1.0.

[2] = MTT dye reduction viability test, HaCaT; assay type: cell-based, human; conditions: human; for viability at 72 h, 10 µM / viability at 72 h, 20 µM / viability at 72 h, 40 µM / viability at 72 h, 60 µM / viability at 72 h, 80 µM / viability at 72 h, 100 µM: HaCaT
Protocol: as §1, §2, §3

rat brain homogenate = test: Lipid peroxidation (MDA/TBA) induced by FeCl2 and ascorbic acid; assay type: biochemical; conditions: 10 µM compound; for MDA concentration: oxidation by 0.1% FeCl2 and 1 mM ascorbic acid, 1 h 37 °C, control 9.644 ± 1.570
Protocol: The antioxidant potential of the new flavone derivatives was assessed based on the analysis of malondialdehyde concentration formed as a product of lipid oxidation stimulated by iron (II) ions.
After preparation, the brain was placed on an ice plate and washed with cold 0.9% NaCl. 10% (m/v) brain solution was obtained by homogenization in cold 10 mM TRIS-HCl buffer, pH = 7.5. The homogenate was centrifuged (2000 rpm, 10 min, 4 °C) to obtain supernatant 1 (S1).
100 µM stock solutions of test compounds in DMSO were prepared. The test compound solution was added to a […] S1 homogenate to a final concentration of 10 µM.
The oxidation reaction was induced by adding to the samples with or without the test compounds freshly prepared solutions: 0.1% FeCl2 (0.2 mL) and 1 mM ascorbic acid (0.4 mL). After incubation for 1 h at 37 °C, the reaction was stopped by adding 8.1% sodium dodecyl sulfate (SDS) solution. In order to determine the concentration of MDA, the acetic acid/HCl buffer at pH = 3.4 and 120 μL of 0.8% thiobarbituric acid (TBA) solution at pH = 6 were added to the samples. The samples were incubated for 1 h at 100 °C. After incubation, the samples were cooled on ice and centrifuged for 10 min at 4000 RPM. The absorbance was measured at a wavelength of 532 nm. Blank content: 0.5 mL of acetate buffer + 0.5 mL of TBA solution.
Calculation of malondialdehyde (MDA) concentration (Equation (1)):(1) MDA concentration=∆ A532 nm × 1.56 ×10^−6 [nmol MDA/h/g tissue]

[3] = 72 h, representative MTT result (Table S1 A)
[4] = PC3, 100 µM, 72 h, representative MTT result (Table S1 A), read-out: Cells viability
[5] = HaCaT cells (immortal keratinocytes), 72 h exposure, MTT, mean ± SD, read-out: Cytotoxic activity IC50, HaCaT
[6] = HaCaT cells (immortal keratinocytes), 72 h, representative MTT result (Table S1 B)
[7] = HaCaT cells (immortal keratinocytes), 100 µM, 72 h, representative MTT result (Table S1 B), read-out: Cells viability

Row | Structure (SMILES) | IC50 ([1]; 72 h exposure, MTT, mean ± SD) [µM] | viability at 10 µM [1, 3] [%] | viability at 20 µM [1, 3] [%] | viability at 40 µM [1, 3] [%] | viability at 60 µM [1, 3] [%] | viability at 80 µM [1, 3] [%] | viability at 100 µM [1, 4] [%] | IC50 at 72 h [2, 5] [µM] | viability at 72 h, 10 µM [2, 6] [%] | viability at 72 h, 20 µM [2, 6] [%] | viability at 72 h, 40 µM [2, 6] [%] | viability at 72 h, 60 µM [2, 6] [%] | viability at 72 h, 80 µM [2, 6] [%] | viability at 72 h, 100 µM [2, 7] [%] | MDA concentration (rat brain homogenate) [mM × 10^−3] | further results
1 | CCCCCC=CCC=CCCCCCCCC(=O)Oc1ccc2c(=O)cc(-c3ccccc3)oc2c1 [7-Linoleic-Flavone, 7-hydroxy-flavone linoleic ester] | 41.2 ± 2.3 | 84.6 | 70.4 | 46.7 | 35.9 | 34.3 | 39.5 | 65 ± 4.12 | 88.4 | 73.2 | 74.5 | 57 | 44.6 | 34 | 8.010 ± 0.008 | 
2 | O=c1cc(-c2ccccc2)oc2ccc(O)cc12 [Compound 13, 6-Hydroxy-Flavone, reference compound] |  | 89.4 | 87.8 | 99 | 110 | 87 | 73.2 |  | 96.4 | 83.8 | 77.9 | 95.1 | 84.9 | 87.8 |  | 
3 | CCCCCC=CCC=CCCCCCCCC(=O)Oc1ccc2c(c1)C(=O)CC(c1ccccc1)O2 (stereo not drawn) [6-Linoleic-Flavanone, 6-hydroxy-flavanone linoleic ester] | 48.3 ± 8.73 | 94.7 | 76.5 | 53.3 | 45.4 | 31.2 | 20.2 | 80 ± 4.75 | 95.7 | 93.8 | 86.8 | 73.4 | 50.3 | 34.9 |  | 
4 | CCCCCCCCCCCCCCCCCC(=O)Oc1ccc2c(=O)cc(-c3ccccc3)oc2c1 [7-Stearic-Flavone, 7-hydroxy-flavone stearic ester] | 33.2 ± 4.81 | 100 | 87.7 | 41.8 | 32.2 | 47.9 | 27.5 | 45.6 ± 7.2 | 95.8 | 65.3 | 59.1 | 39.8 | 35.7 | 20.7 | 8.151 ± 0.343 | melting point: 84.5 to 85.7 °C
5 | CC=CC=CC(=O)Oc1ccc2c(=O)cc(-c3ccccc3)oc2c1 [7-Sorbic-Flavone, 7-hydroxy-flavone sorbic ester] | 94.3 ± 4.24 | 84 | 80.9 | 93.6 | 74.5 | 69.6 | 75.2 | 50.8 ± 2.48 | 97.5 | 87.2 | 80.1 | 41 | 57.4 | 43.7 | 8.361 ± 0.050 | melting point: 137.8 to 139.7 °C
6 | CCC=CCC=CCC=CCCCCCCCC(=O)Oc1ccc2c(=O)cc(-c3ccccc3)oc2c1 [7-Linolenic-Flavone, 7-hydroxy-flavone linolenic ester] | > 100 | 90.2 | 86.3 | 81.7 | 79.4 | 86.8 | 86.7 | 45.4 ± 9.2 | 106 | 90.5 | 66 | 19.4 | 15.8 | 14.6 |  | cytotoxic potential in PC3 cells (in words) ([1]; PC3, 0–100 μM, 72 h): no cytotoxic potential
7 | O=C1CC(c2ccccc2)Oc2ccc(O)cc21 (stereo not drawn) [6-Hydroxy-Flavanone, 6-hydroxy-flavanone, reference compound] | > 100 | 96.4 | 96 | 96 | 96.7 | 96.4 | 96.8 | > 100 | 99.7 | 115 | 113 | 104 | 72.2 | 74.4 | 7.077 ± 1.815 | viability at 100 µM ([1]; PC3, 100 μM, 72 h incubation, read-out: cells viability compared to control cells): 89%; viability at 72 h, 100 µM ([2]; HaCaT cells (immortal keratinocytes), 100 μM, 72 h incubation, read-out: cells viability compared to control cells): 73%; reduction of the level of MDA compared to the control sample (rat brain homogenate; rat brain homogenate): 26.62%
8 | COc1cccc2c1C(=O)c1c(O)c3c(c(O)c1C2=O)C[C@@](O)(C(=O)CO)C[C@@H]3O[C@H]1C[C@H](N)[C@H](O)[C@H](C)O1 [doxorubicin, reference compound] |  |  |  |  |  |  |  |  |  |  |  |  |  |  |  | IC50 ([1]; 72 h): 0.29 µM; IC50 at 72 h ([2]; Cytotoxic activity IC50, HaCaT): 0.31 µM
